Experimental data published in patent US7960556B2, “Thiadiazole derivatives for the treatment of neuro-degenerative diseases” (NV reMYND, priority 2006, dated 2011).

Test system: α-synuclein cytotoxicity in M17-SYNwt cells
Test: α-synuclein cytotoxicity assay: LDH leakage from paraquat-treated M17-SYNwt neuroblastoma cells;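 note: paraquat at 32 mM co-added with compound, 40 h exposure, LDH activity released into the culture medium measured, references are DMSO-only cells and paraquat plus DMSO cells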
Details: Homo sapiens, Neuroblastoma cell; for Emax: read-out: % Inhib.

SMILES | EC50 [µM] | Emax [%]
Cc1ccccc1NC(=O)N1CCN(c2nc(Cc3ccc(F)cc3)ns2)CC1 [compound 15, N-(2-methylphenyl)-4-[3-(4-fluorobenzyl)-1,2,4-thiadiazol-5-yl]piperazine-1-carboxamide] | 5.01 | 65
COc1ccc(S(=O)(=O)N2CCN(c3nc(Cc4cccc(OC)c4)ns3)CC2)cc1 [compound 53, 1-[4-methoxyphenylsulfonyl]-4-[3-(3-methoxybenzyl)-1,2,4-thiadiazol-5-yl]piperazine] | 0.0014 | 83
O=C(Cc1ccccc1)N1CCN(c2nc(Cc3ccc(F)cc3)ns2)CC1 [compound 1, 4-phenylacetyl-1-[3-(4-fluorobenzyl)-1,2,4-thiadiazol-5-yl]piperazine] | 0.15 | 75
CC1CN(c2nc(Cc3ccc(F)cc3)ns2)CCN1S(=O)(=O)c1ccc(F)cc1 (stereo not drawn) [compound 59, 1-[4-fluorophenylsulfonyl]-4-[3-(4-fluorobenzyl)-1,2,4-thiadiazol-5-yl]-2-methylpiperazine] | – | 42
O=C(Nc1ccccc1F)N1CCN(c2nc(Cc3ccc(F)cc3)ns2)CC1 [compound 16, N-(2-fluorophenyl)-4-[3-(4-fluorobenzyl)-1,2,4-thiadiazol-5-yl]piperazine-1-carboxamide] | 5.68 | 72
CCCCCCc1ccc(C(=O)NCCN2CCN(c3nc(Cc4ccc(F)cc4)ns3)CC2)cc1 [compound 96, 4-hexyl-N-{2-[4-[3-(4-fluorobenzyl)-1,2,4-thiadiazol-5-yl]piperazin-1-yl]ethyl}benzamide] | 0.8 | 72
COc1cccc(Cc2nsc(N3CCN(C(=O)c4ccc(Br)cc4)C(C)C3)n2)c1 (stereo not drawn) [compound 170, 1-(4-bromobenzoyl)-4-[3-(3-methoxybenzyl)-1,2,4-thiadiazol-5-yl]-2-methylpiperazine] | – | 89
O=C(NCCN1CCN(c2nc(Cc3ccc(Cl)cc3)ns2)CC1)c1cccc(F)c1 [compound 100, 3-fluoro-N-{2-[4-[3-(4-chlorobenzyl)-1,2,4-thiadiazol-5-yl]piperazin-1-yl]ethyl}benzamide] | 1.79 | 75
CCOc1ccc(NC(=O)N2CCN(c3nc(Cc4ccc(F)cc4)ns3)CC2C)cc1 (stereo not drawn) [compound 14, N-(4-ethoxyphenyl)-4-[3-(4-fluorobenzyl)-1,2,4-thiadiazol-5-yl]-2-methylpiperazine-1-carboxamide] | 1.73 | 70
Cc1ccccc1C(=O)N1CCN(c2nc(Cc3ccc(F)cc3)ns2)CC1 [compound 152, 1-(2-methylbenzoyl)-4-[3-(4-fluorobenzyl)-1,2,4-thiadiazol-5-yl]piperazine] | 1.15 | 66
CC1CN(c2nc(Cc3ccc(F)cc3)ns2)CCN1C(=O)/C=C/c1ccccc1 (stereo not drawn) [compound 87, 1-[(2E)-3-phenylprop-2-enoyl]-4-[3-(4-fluorobenzyl)-1,2,4-thiadiazol-5-yl]-2-methylpiperazine] | 2.49 | 94
Cc1ccc(Cc2nsc(N3CCN(C(=O)c4ccc(Cl)cc4)CC3)n2)cc1 [compound 155, 1-(4-chlorobenzoyl)-4-[3-(4-methylbenzyl)-1,2,4-thiadiazol-5-yl]piperazine] | 1.64 | 76
CC1CN(c2nc(Cc3ccc(F)cc3)ns2)CCN1S(=O)(=O)c1ccc([N+](=O)[O-])cc1 (stereo not drawn) [compound 73, 1-[4-nitrophenylsulfonyl]-4-[3-(4-fluorobenzyl)-1,2,4-thiadiazol-5-yl]-2-methylpiperazine] | – | 33
Cc1ccc(Cc2nsc(N3CCN(C(=O)c4ccc(C(C)(C)C)cc4)CC3)n2)cc1 [compound 183, 1-(4-tert-butylbenzoyl)-4-[3-(4-methylbenzyl)-1,2,4-thiadiazol-5-yl]piperazine] | – | 52
Cc1ccc(Cc2nsc(N3CCN(C(=O)c4ccccc4F)C(C)C3)n2)cc1 (stereo not drawn) [compound 149, 1-(2-fluorobenzoyl)-4-[3-(4-methylbenzyl)-1,2,4-thiadiazol-5-yl]-2-methylpiperazine] | 0.98 | 105
CCCCS(=O)(=O)N1CCN(c2nc(Cc3ccc(C)cc3)ns2)CC1 [compound 83, 1-(butylsulfonyl)-4-[3-(4-methylbenzyl)-1,2,4-thiadiazol-5-yl]piperazine] | 2.64 | 36
CCc1ccc(C(=O)N2CCN(c3nc(Cc4ccc(C)cc4)ns3)CC2)cc1 [compound 131, 1-(4-ethylbenzoyl)-4-[3-(4-methylbenzyl)-1,2,4-thiadiazol-5-yl]piperazine] | 0.25 | 91
CC1CN(c2nc(Cc3ccc(Cl)cc3)ns2)CCN1C(=O)c1ccccc1F (stereo not drawn) [compound 167, 1-(2-fluorobenzoyl)-4-[3-(4-chlorobenzyl)-1,2,4-thiadiazol-5-yl]-2-methylpiperazine] | – | 117
O=C(Nc1ccccc1)N1CCN(c2nc(Cc3ccc(F)cc3)ns2)CC1 [compound 13, N-phenyl-4-[3-(4-fluorobenzyl)-1,2,4-thiadiazol-5-yl]piperazine-1-carboxamide] | 1.23 | 71

SMILES | EC50 [µM] | Emax [%]
O=C(NCCN1CCN(c2nc(Cc3ccc(F)cc3)ns2)CC1)c1cc(Cl)cc(Cl)c1 [compound 98, 3,5-dichloro-N-{2-[4-[3-(4-fluorobenzyl)-1,2,4-thiadiazol-5-yl]piperazin-1-yl]ethyl}benzamide] | 1.42 | 102
Cc1ccc(Cc2nsc(N3CCN(S(=O)(=O)c4ccc(F)cc4)C(C)C3)n2)cc1 (stereo not drawn) [compound 58, 1-[4-fluorophenylsulfonyl]-4-[3-(4-methylbenzyl)-1,2,4-thiadiazol-5-yl]-2-methylpiperazine] | 0.061 | 58
CCc1ccccc1NC(=O)N1CCN(c2nc(Cc3ccc(F)cc3)ns2)CC1C (stereo not drawn) [compound 12, N-(2-ethylphenyl)-4-[3-(4-fluorobenzyl)-1,2,4-thiadiazol-5-yl]-2-methylpiperazine-1-carboxamide] | 0.89 | 92
COc1cccc(Cc2nsc(N3CCN(C(=O)c4ccc(C)cc4)C(C)C3)n2)c1 (stereo not drawn) [compound 124, 1-(4-methylbenzoyl)-4-[3-(3-methoxybenzyl)-1,2,4-thiadiazol-5-yl]-2-methylpiperazine] | 0.14 | 57
O=C(c1ccc(Cl)cc1)N1CCCN(c2nc(Cc3ccc(F)cc3)ns2)CC1 [compound 189, 1-(4-chlorobenzoyl)-4-[3-(4-fluorobenzyl)-1,2,4-thiadiazol-5-yl]-1,4-diazepane] | 0.17 | 85
Cc1ccc(Cc2nsc(N3CCN(S(=O)(=O)c4c(C)cc(C)cc4C)CC3)n2)cc1 [compound 37, 1-[2,4,6-trimethylphenylsulfonyl]-4-[3-(4-methylbenzyl)-1,2,4-thiadiazol-5-yl]piperazine] | 0.0731 | 48
Fc1ccc(Cc2nsc(N3CCN(Cc4ccc5c(c4)OCO5)CC3)n2)cc1 [compound 114, 1-(1,3-benzodioxol-5-ylmethyl)-4-[3-(4-fluorobenzyl)-1,2,4-thiadiazol-5-yl]piperazine] | – | 86
CC1CN(c2nc(Cc3ccc(F)cc3)ns2)CCN1C(=O)c1cccc(F)c1 (stereo not drawn) [compound 179, 1-(3-fluorobenzoyl)-4-[3-(4-fluorobenzyl)-1,2,4-thiadiazol-5-yl]-2-methylpiperazine] | – | 68
Fc1ccc(Cc2nsc(N3CCN(Cc4ccccc4)CC3)n2)cc1 [compound 113, 1-benzyl-4-[3-(4-fluorobenzyl)-1,2,4-thiadiazol-5-yl]piperazine] | 1.54 | 65
Cc1ccccc1NC(=O)N1CCN(c2nc(Cc3ccc(F)cc3)ns2)CC1C (stereo not drawn) [compound 10, N-(2-methylphenyl)-4-[3-(4-fluorobenzyl)-1,2,4-thiadiazol-5-yl]-2-methylpiperazine-1-carboxamide] | 0.6 | 72
O=C(NCCN1CCN(c2nc(Cc3ccc(F)cc3)ns2)CC1)NCc1ccccc1 [compound 110, N-benzyl-N′-{2-[4-[3-(4-fluorobenzyl)-1,2,4-thiadiazol-5-yl]piperazin-1-yl]ethyl}urea] | – | 77
CC1CN(c2nc(Cc3ccc(F)cc3)ns2)CCN1C(=O)c1ccccc1Br (stereo not drawn) [compound 148, 1-(2-bromobenzoyl)-4-[3-(4-fluorobenzyl)-1,2,4-thiadiazol-5-yl]-2-methylpiperazine] | 0.86 | 56
CCc1ccc(C(=O)N2CCN(c3nc(Cc4ccc(Cl)cc4)ns3)CC2)cc1 [compound 165, 1-(4-ethylbenzoyl)-4-[3-(4-chlorobenzyl)-1,2,4-thiadiazol-5-yl]piperazine] | – | 133
Clc1ccc(Cc2nsc(N3CCN(C/C=C/c4ccccc4)CC3)n2)cc1 [compound 92, 1-[3-phenylprop-2-enyl]-4-[3-(4-chlorobenzyl)-1,2,4-thiadiazol-5-yl]piperazine] | 0.75 | 69
Cc1ccc(Cc2nsc(N3CCN(C(=O)c4ccc(C(F)(F)F)cc4)CC3)n2)cc1 [compound 171, 1-(4-trifluoromethylbenzoyl)-4-[3-(4-methylbenzyl)-1,2,4-thiadiazol-5-yl]piperazine] | – | 86
O=C(c1cccc(F)c1)N1CCN(c2nc(Cc3ccc(Cl)cc3)ns2)CC1 [compound 157, 1-(3-fluorobenzoyl)-4-[3-(4-chlorobenzyl)-1,2,4-thiadiazol-5-yl]piperazine] | 1.7 | 70
CC1CN(c2nc(Cc3ccc(F)cc3)ns2)CCN1C(=O)c1cccc(Br)c1 (stereo not drawn) [compound 142, 1-(3-bromobenzoyl)-4-[3-(4-fluorobenzyl)-1,2,4-thiadiazol-5-yl]-2-methylpiperazine] | 0.5 | 72
Cc1ccc(Cc2nsc(N3CCN(S(=O)(=O)c4ccc(F)cc4)CC3)n2)cc1 [compound 57, 1-[4-fluorophenylsulfonyl]-4-[3-(4-methylbenzyl)-1,2,4-thiadiazol-5-yl]piperazine] | 0.0104 | 88
O=S(=O)(c1cc(Cl)ccc1Cl)N1CCN(c2nc(Cc3ccc(Cl)cc3)ns2)CC1 [compound 39, 1-[2,5-dichlorophenylsulfonyl]-4-[3-(4-chlorobenzyl)-1,2,4-thiadiazol-5-yl]piperazine] | 0.16 | 25
